Measurements: ChEMBL document CHEMBL1932915, “Synthesis and biological evaluation of sialic acid derivatives containing a long hydrophobic chain at the anomeric position and their C-5 linked polymers as potent influenza virus inhibitors” (Bioorg Med Chem, 2012)
pEC50, pIC50: −log10 of the molar value.

Legend:
Neuraminidase = Neuraminidase (Influenza A virus, UniProt B4URF0); assay: Inhibition of Avian influenza virus A/DK/HK/313/78 (H5N3) neuraminidase using 4-MU-Neu5Ac as substrate after 30 mins by fluorimetry
[1] = target: Neuraminidase (Influenza A virus (A/Puerto Rico/8/1934(H1N1)), UniProt P03468); assay: Inhibition of Human influenza virus A/PR/8/34 (H1N1) neuraminidase using 4-MU-Neu5Ac as substrate after 30 mins by fluorimetry
[2] = target: Neuraminidase (Influenza A virus (A/Aichi/2/1968(H3N2)), UniProt Q75VQ4); assay: Inhibition of Human influenza virus A/Aichi/2/68 (H3N2) neuraminidase using 4-MU-Neu5Ac as substrate after 30 mins by fluorimetry
[3] = Inhibition of Avian influenza virus A/DK/HK/313/78 (H5N3) hemagglutininin activity in chicken erythrocytes after 1 hr; format: cell-based

Neuraminidase (Influenza A virus (A/Puerto Rico/8/1934(H1N1)), UniProt P03468), sequence (P03468 whole entry): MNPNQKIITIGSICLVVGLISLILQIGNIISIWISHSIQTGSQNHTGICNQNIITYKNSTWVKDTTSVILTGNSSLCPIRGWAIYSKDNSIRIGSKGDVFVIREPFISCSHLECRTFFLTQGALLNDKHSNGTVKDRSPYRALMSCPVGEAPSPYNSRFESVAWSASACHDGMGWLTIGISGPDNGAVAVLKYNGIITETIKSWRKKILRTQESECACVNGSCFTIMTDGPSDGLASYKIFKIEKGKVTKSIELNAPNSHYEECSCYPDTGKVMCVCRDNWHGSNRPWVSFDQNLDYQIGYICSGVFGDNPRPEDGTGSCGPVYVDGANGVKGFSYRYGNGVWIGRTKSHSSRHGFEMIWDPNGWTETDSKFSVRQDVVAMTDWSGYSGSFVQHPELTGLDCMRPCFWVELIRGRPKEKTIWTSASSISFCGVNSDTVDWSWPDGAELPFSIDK
Neuraminidase, sequence (B4URF0 whole entry): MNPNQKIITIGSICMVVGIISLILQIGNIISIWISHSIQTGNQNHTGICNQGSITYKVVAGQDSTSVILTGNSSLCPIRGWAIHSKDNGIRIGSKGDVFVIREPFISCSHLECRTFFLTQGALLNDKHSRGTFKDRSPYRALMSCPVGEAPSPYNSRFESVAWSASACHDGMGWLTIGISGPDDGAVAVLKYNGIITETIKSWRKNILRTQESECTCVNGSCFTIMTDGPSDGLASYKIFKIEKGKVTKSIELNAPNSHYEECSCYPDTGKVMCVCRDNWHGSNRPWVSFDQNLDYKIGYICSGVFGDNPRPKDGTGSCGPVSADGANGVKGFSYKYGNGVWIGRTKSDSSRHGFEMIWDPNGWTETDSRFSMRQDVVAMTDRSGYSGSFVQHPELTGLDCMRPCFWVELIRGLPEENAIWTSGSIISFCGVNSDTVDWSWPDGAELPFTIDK
Neuraminidase (Influenza A virus (A/Aichi/2/1968(H3N2)), UniProt Q75VQ4), sequence (Q75VQ4 whole entry): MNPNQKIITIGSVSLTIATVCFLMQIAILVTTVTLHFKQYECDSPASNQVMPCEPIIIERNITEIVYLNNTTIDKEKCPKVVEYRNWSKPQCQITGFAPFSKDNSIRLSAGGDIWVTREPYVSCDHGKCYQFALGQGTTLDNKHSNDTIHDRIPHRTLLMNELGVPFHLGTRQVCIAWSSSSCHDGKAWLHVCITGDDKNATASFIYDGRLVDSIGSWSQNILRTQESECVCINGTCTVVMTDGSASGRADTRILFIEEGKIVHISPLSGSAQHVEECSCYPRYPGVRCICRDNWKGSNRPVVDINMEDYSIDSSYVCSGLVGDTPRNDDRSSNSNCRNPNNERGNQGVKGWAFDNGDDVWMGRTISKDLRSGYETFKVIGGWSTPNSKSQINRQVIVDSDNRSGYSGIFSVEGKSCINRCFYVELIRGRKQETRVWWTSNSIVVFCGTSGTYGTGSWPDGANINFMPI

## C=CC(=O)N[C@H]1[C@H]([C@H](O)[C@H](O)CO)O[C@@](SCCCCCCCCCCCC)(C(=O)O)C[C@@H]1O
Neuraminidase
  pEC50: 3.27
[1]
  pEC50: 2.87
[2]
  pEC50: 3.37

## C=CC(=O)N[C@H]1[C@H]([C@H](O)[C@H](O)CO)OC(O)(C(=O)O)C[C@@H]1O (stereo not given in full)
Neuraminidase
  pEC50: 3.22
[3]
  pIC50: < 3.60
[1]
  pEC50: 2.61
[2]
  pEC50: 2.97

## C=CC(=O)NCCCCCC(=O)N[C@H]1[C@H]([C@H](O)[C@H](O)CO)O[C@@](SCCCCCCCCCCCC)(C(=O)O)C[C@@H]1O
Neuraminidase
  pEC50: 3.99
[1]
  pEC50: 3.13
[2]
  pEC50: 3.08
